Test system: participants with SSc-RP
Test: Average severity of weekly RP attacks (VAS 0-10)
Assay type: in vivo, human
Settings: for Average Severity (0-10) of weekly RP attacks, Median / Average Severity (0-10) of weekly RP attacks, Mean / Average severity of weekly RP attacks, Percent Change from Baseline, Mean / Average severity of weekly RP attacks, Change from Baseline, Mean / Average severity of weekly RP attacks, Percent Change from Baseline, Median / Average severity of weekly RP attacks, Change from Baseline, Median: all attacks
From the text: The absolute change in average severity of weekly RP attacks (VAS 0-10 cm scale) from baseline to the end of each Dosing Period was and will be a secondary outcome variable. The sponsor-developed participant-informed diary will be used to record data. Average severity of weekly RP attacks is defined as the total severity scores of RP attacks divided by total number of RP attacks within the last 7 days of each dosing period. Total severity scores of RP attacks during the last 7 days of screening period divided by the total number of RP attacks will be used as baseline for the analysis of all periods. The variable will be calculated similar to frequency data as before.

[1] = Pooled Cilnidipine 10 mg and Cilnidipine 10 mg + Tadalafil 5 mg, Excluding Outliers, 1st Baseline RCS subgroup, ITT Part A, last 7 days of dosing period
[2] = Pooled Cilnidipine 10 mg and Cilnidipine 10 mg + Tadalafil 5 mg, Excluding Outliers, 2nd Baseline RCS subgroup, ITT Part A, last 7 days of dosing period
[3] = Pooled Cilnidipine 10 mg and Cilnidipine 10 mg + Tadalafil 5 mg, ITT Part A, last 7 days of dosing period
[4] = Pooled Cilnidipine 10 mg and Cilnidipine 10 mg + Tadalafil 5 mg, Excluding Outliers, by Baseline RCS: second subgroup of Table C-8, ITT Part A
[5] = Pooled Cilnidipine 10 mg and Cilnidipine 10 mg + Tadalafil 5 mg, by Baseline RCS: second subgroup of Table C-7, ITT Part A
[6] = Pooled Cilnidipine 20 mg and Cilnidipine 20 mg + Tadalafil 5 mg, 1st Baseline RCS subgroup, ITT Part A, last 7 days of dosing period
[7] = Pooled Cilnidipine 20 mg and Cilnidipine 20 mg + Tadalafil 5 mg, 2nd Baseline RCS subgroup, ITT Part A, last 7 days of dosing period
[8] = Pooled Cilnidipine 20 mg and Cilnidipine 20 mg + Tadalafil 5 mg, Excluding Outliers, 1st Baseline RCS subgroup, ITT Part A, last 7 days of dosing period
[9] = Pooled Cilnidipine 20 mg and Cilnidipine 20 mg + Tadalafil 5 mg, Excluding Outliers, 2nd Baseline RCS subgroup, ITT Part A, last 7 days of dosing period
[10] = Pooled Cilnidipine 20 mg and Cilnidipine 20 mg + Tadalafil 5 mg, ITT Part A, last 7 days of dosing period
[11] = Pooled Cilnidipine 20 mg and Cilnidipine 20 mg + Tadalafil 5 mg, Excluding Outliers, by Baseline RCS: first subgroup of Table C-8, ITT Part A
[12] = Pooled Cilnidipine 20 mg and Cilnidipine 20 mg + Tadalafil 5 mg, by Baseline RCS: first subgroup of Table C-7, ITT Part A
[13] = Pooled Cilnidipine, 1st Baseline RCS subgroup, ITT Part A, last 7 days of dosing period
[14] = Pooled Cilnidipine, Excluding Outliers, 1st Baseline RCS subgroup, ITT Part A, last 7 days of dosing period
[15] = Pooled Cilnidipine, ITT Part A, last 7 days of dosing period
[16] = Pooled Cilnidipine, Excluding Outliers, ITT Part A
[17] = Pooled Cilnidipine, Excluding Outliers, by Baseline RCS: first subgroup of Table C-8, ITT Part A
[18] = Pooled Cilnidipine, by Baseline RCS: first subgroup of Table C-7, ITT Part A
[19] = Pooled Cilnidipine, excluding outliers, ITT Part A
[20] = Pooled Cilnidipine, excluding outliers, severity 0-10, ITT Part A
[21] = Pooled Cilnidipine, severity 0-10, ITT Part A

COCCOC(=O)C1=C(C)NC(C)=C(C(=O)OC/C=C/c2ccccc2)C1c1cccc([N+](=O)[O-])c1 (centres unmarked) [Cilnidipine]
Average Severity of Weekly Symptomatic RP Attacks, Change from Baseline, Median [1]: −1.22
Average Severity of Weekly Symptomatic RP Attacks, Mean [1]: 3.34
Average Severity of Weekly Symptomatic RP Attacks, Median [1]: 3.34
Average Severity of Weekly Symptomatic RP Attacks, Percent Change from Baseline, Mean [1]: −20.18%
Average Severity of Weekly Symptomatic RP Attacks, Percent Change from Baseline, Median [1]: −20.18%
Average Severity of Weekly Symptomatic RP Attacks, Change from Baseline, Mean [2]: −1.13
Average Severity of Weekly Symptomatic RP Attacks, Change from Baseline, Median [2]: −1.13
Average Severity of Weekly Symptomatic RP Attacks, Mean [2]: 5.23
Average Severity of Weekly Symptomatic RP Attacks, Median [2]: 5.23
Average Severity of Weekly Symptomatic RP Attacks, Percent Change from Baseline, Mean [2]: −17.81%
Average Severity of Weekly Symptomatic RP Attacks, Percent Change from Baseline, Median [2]: −17.81%
Average Severity of Weekly RP Attacks (All Attacks), Change from Baseline, Mean [3]: −1.34
Average Severity of Weekly RP Attacks (All Attacks), Change from Baseline, Median [3]: −1.32
Average Severity of Weekly RP Attacks (All Attacks), Mean [3]: 3.62
Average Severity of Weekly RP Attacks (All Attacks), Median [3]: 3.05
Average Severity of Weekly RP Attacks (All Attacks), Percent Change from Baseline, Mean [3]: −23.02%
Average Severity of Weekly RP Attacks (All Attacks), Percent Change from Baseline, Median [3]: −21.20%
Average Severity (0-10) of weekly RP attacks, Median (Pooled Cilnidipine 10 mg and Cilnidipine 10 mg + Tadalafil 5 mg, Excluding Outliers, ITT Part A): 3.05
Average Severity (0-10) of weekly RP attacks, Mean [4]: 4.90
Average Severity (0-10) of weekly RP attacks, Median [4]: 4.90
Average severity of weekly RP attacks, Percent Change from Baseline, Mean [4]: −21.20%
Average severity of weekly RP attacks, Change from Baseline, Mean (Pooled Cilnidipine 10 mg and Cilnidipine 10 mg + Tadalafil 5 mg, by Baseline RCS: first subgroup of Table C-7, ITT Part A): −1.35
Average Severity (0-10) of weekly RP attacks, Mean [5]: 4.90
Average Severity (0-10) of weekly RP attacks, Median [5]: 4.90
Average severity of weekly RP attacks, Percent Change from Baseline, Mean [5]: −21.20%
Average severity of weekly RP attacks, Percent Change from Baseline, Median [5]: −21.20%
Average Severity of Weekly Symptomatic RP Attacks, Change from Baseline, Mean [6]: −1.06
Average Severity of Weekly Symptomatic RP Attacks, Change from Baseline, Median [6]: −0.33
Average Severity of Weekly Symptomatic RP Attacks, Mean [6]: 2.85
Average Severity of Weekly Symptomatic RP Attacks, Median [6]: 2.40
Average Severity of Weekly Symptomatic RP Attacks, Percent Change from Baseline, Mean [6]: −24.28%
Average Severity of Weekly Symptomatic RP Attacks, Percent Change from Baseline, Median [6]: −12.02%
Average Severity of Weekly Symptomatic RP Attacks, Change from Baseline, Mean [7]: −1.79
Average Severity of Weekly Symptomatic RP Attacks, Change from Baseline, Median [7]: −1.79
Average Severity of Weekly Symptomatic RP Attacks, Mean [7]: 5.06
Average Severity of Weekly Symptomatic RP Attacks, Median [7]: 5.06
Average Severity of Weekly Symptomatic RP Attacks, Percent Change from Baseline, Mean [7]: −26.14%
Average Severity of Weekly Symptomatic RP Attacks, Percent Change from Baseline, Median [7]: −26.14%
Average Severity of Weekly Symptomatic RP Attacks, Change from Baseline, Mean [8]: −1.06
Average Severity of Weekly Symptomatic RP Attacks, Change from Baseline, Median [8]: −0.33
Average Severity of Weekly Symptomatic RP Attacks, Mean [8]: 2.85
Average Severity of Weekly Symptomatic RP Attacks, Median [8]: 2.40
Average Severity of Weekly Symptomatic RP Attacks, Percent Change from Baseline, Mean [8]: −24.28%
Average Severity of Weekly Symptomatic RP Attacks, Percent Change from Baseline, Median [8]: −12.02%
Average Severity of Weekly Symptomatic RP Attacks, Change from Baseline, Mean [9]: −1.79
Average Severity of Weekly Symptomatic RP Attacks, Change from Baseline, Median [9]: −1.79
Average Severity of Weekly Symptomatic RP Attacks, Mean [9]: 5.06
Average Severity of Weekly Symptomatic RP Attacks, Median [9]: 5.06
Average Severity of Weekly Symptomatic RP Attacks, Percent Change from Baseline, Mean [9]: −26.14%
Average Severity of Weekly Symptomatic RP Attacks, Percent Change from Baseline, Median [9]: −26.14%
Average Severity of Weekly RP Attacks (All Attacks), Change from Baseline, Mean [10]: −1.02
Average Severity of Weekly RP Attacks (All Attacks), Change from Baseline, Median [10]: −0.96
Average Severity of Weekly RP Attacks (All Attacks), Mean [10]: 3.35
Average Severity of Weekly RP Attacks (All Attacks), Median [10]: 3.06
Average Severity of Weekly RP Attacks (All Attacks), Percent Change from Baseline, Mean [10]: −21.83%
Average Severity of Weekly RP Attacks (All Attacks), Percent Change from Baseline, Median [10]: −16.40%
Average severity of weekly RP attacks, Change from Baseline, Median (Pooled Cilnidipine 20 mg and Cilnidipine 20 mg + Tadalafil 5 mg, Excluding Outliers, ITT Part A): −0.96
Average Severity (0-10) of weekly RP attacks, Median [11]: 2.40
Average severity of weekly RP attacks, Change from Baseline, Mean [11]: −0.84
Average severity of weekly RP attacks, Change from Baseline, Median [11]: −0.39
Average Severity (0-10) of weekly RP attacks, Median [12]: 2.40
Average severity of weekly RP attacks, Change from Baseline, Mean [12]: −0.84
Average severity of weekly RP attacks, Change from Baseline, Median [12]: −0.39
Severity (change) (Pooled Cilnidipine (n = 7)): −16%
Average Severity of Weekly Symptomatic RP Attacks, Change from Baseline, Mean [13]: −0.87
Average Severity of Weekly Symptomatic RP Attacks, Change from Baseline, Median [13]: −0.33
Average Severity of Weekly Symptomatic RP Attacks, Mean [13]: 2.79
Average Severity of Weekly Symptomatic RP Attacks, Median [13]: 2.40
Average Severity of Weekly Symptomatic RP Attacks, Percent Change from Baseline, Mean [13]: −19.22%
Average Severity of Weekly Symptomatic RP Attacks, Percent Change from Baseline, Median [13]: −12.02%
Average Severity of Weekly Symptomatic RP Attacks, Change from Baseline, Mean [14]: −0.87
Average Severity of Weekly Symptomatic RP Attacks, Change from Baseline, Median [14]: −0.33
Average Severity of Weekly Symptomatic RP Attacks, Mean [14]: 2.79
Average Severity of Weekly Symptomatic RP Attacks, Median [14]: 2.40
Average Severity of Weekly Symptomatic RP Attacks, Percent Change from Baseline, Mean [14]: −19.22%
Average Severity of Weekly Symptomatic RP Attacks, Percent Change from Baseline, Median [14]: −12.02%
Average Severity of Weekly Symptomatic RP Attacks, Percent Change from Baseline, Mean (Pooled Cilnidipine, ITT Part A): −19.22%
Average Severity of Weekly Symptomatic RP Attacks, Percent Change from Baseline, Median (Pooled Cilnidipine, ITT Part A): −12.02%
Average Severity of Weekly RP Attacks (All Attacks), Change from Baseline, Mean [15]: −0.71
Average Severity of Weekly RP Attacks (All Attacks), Change from Baseline, Median [15]: −0.20
Average Severity of Weekly RP Attacks (All Attacks), Mean [15]: 2.55
Average Severity of Weekly RP Attacks (All Attacks), Median [15]: 2.40
Average Severity of Weekly RP Attacks (All Attacks), Percent Change from Baseline, Mean [15]: −17.99%
Average Severity of Weekly RP Attacks (All Attacks), Percent Change from Baseline, Median [15]: −7.69%
Average Severity (0-10) of weekly RP attacks, Median [16]: 2.40
Average severity of weekly RP attacks, Change from Baseline, Mean [16]: −0.71
Average severity of weekly RP attacks, Change from Baseline, Median [16]: −0.20
Average Severity (0-10) of weekly RP attacks, Mean [17]: 2.55
Average Severity (0-10) of weekly RP attacks, Median [17]: 2.40
Average severity of weekly RP attacks, Change from Baseline, Mean [17]: −0.71
Average severity of weekly RP attacks, Change from Baseline, Median [17]: −0.20
Average severity of weekly RP attacks, Percent Change from Baseline, Mean [17]: −17.99%
Average severity of weekly RP attacks, Percent Change from Baseline, Median [17]: −7.69%
Average Severity (0-10) of weekly RP attacks, Mean [18]: 2.55
Average Severity (0-10) of weekly RP attacks, Median [18]: 2.40
Average severity of weekly RP attacks, Change from Baseline, Mean [18]: −0.71
Average severity of weekly RP attacks, Change from Baseline, Median [18]: −0.20
Average severity of weekly RP attacks, Percent Change from Baseline, Mean [18]: −17.99%
Average severity of weekly RP attacks, Percent Change from Baseline, Median [18]: −7.69%
Average Severity of Weekly Symptomatic RP Attacks, Percent Change from Baseline, Mean [19]: −19.22%
Average Severity of Weekly Symptomatic RP Attacks, Percent Change from Baseline, Median [19]: −12.02%
Average Severity of Weekly Symptomatic RP Attacks, Change from Baseline, Mean [20]: −0.87
Average Severity of Weekly Symptomatic RP Attacks, Change from Baseline, Median [20]: −0.33
Average Severity of Weekly Symptomatic RP Attacks, Mean [20]: 2.79
Average Severity of Weekly Symptomatic RP Attacks, Median [20]: 2.40
Average Severity of Weekly Symptomatic RP Attacks, Change from Baseline, Mean [21]: −0.87
Average Severity of Weekly Symptomatic RP Attacks, Change from Baseline, Median [21]: −0.33
Average Severity of Weekly Symptomatic RP Attacks, Mean [21]: 2.79
Average Severity of Weekly Symptomatic RP Attacks, Median [21]: 2.40
severity of attacks, dose response (cilnidipine monotherapy 10 mg vs 20 mg (n=3)): 20 mg reducing severity more than 10 mg

From patent publication US20240358692A1, “TREATMENT OF SCLERODERMA” (Aisa Pharma, Inc., priority 2023, published 2024)
